Tests used:
Assay type in all cases: in vivo
[1] = system: Echinochloa crus-galli (ECHCG); assay: Pre-emergence herbicidal glasshouse test on Echinochloa crus-galli; conditions: pre-emergence, 1000 g/h, evaluated after 13 days
How it was run: (§1)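 Application rate 1000 g/h, formulated in acetone/water (50:50) with 0.5% Tween 20 and sprayed onto pots sown 1 day (pre-emergence) or 8 days (post-emergence) earlier. Evaluation at 13 days rated damage from 1 (0-19%) to 5 (80-100%).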

[2] = system: Ipomoea hederacea (IPOHE); assay: Pre-emergence herbicidal glasshouse test on Ipomoea hederacea; conditions: pre-emergence, 1000 g/h, evaluated after 13 days
How it was run: as §1

[3] = system: Ipomoea hederacea (IPOHE); assay: Post-emergence herbicidal glasshouse test on Ipomoea hederacea; conditions: post-emergence, 1000 g/h, evaluated after 13 days
How it was run: as §1

[4] = system: Alopecurus myosuroides (ALOMY); assay: Post-emergence herbicidal glasshouse test on Alopecurus myosuroides; conditions: post-emergence, 1000 g/h, evaluated after 13 days
How it was run: as §1

[5] = system: Setaria faberi (SETFA); assay: Post-emergence herbicidal glasshouse test on Setaria faberi; conditions: post-emergence, 1000 g/h, evaluated after 13 days
How it was run: as §1

[6] = system: Echinochloa crus-galli (ECHCG); assay: Post-emergence herbicidal glasshouse test on Echinochloa crus-galli; conditions: post-emergence, 1000 g/h, evaluated after 13 days
How it was run: as §1

[7] = system: Solanum nigrum (SOLNI); assay: Pre-emergence herbicidal glasshouse test on Solanum nigrum; conditions: pre-emergence, 1000 g/h, evaluated after 13 days
How it was run: as §1

[8] = system: Solanum nigrum (SOLNI); assay: Post-emergence herbicidal glasshouse test on Solanum nigrum; conditions: post-emergence, 1000 g/h, evaluated after 13 days
How it was run: as §1

[9] = system: Amaranthus retoflexus (AMARE); assay: Post-emergence herbicidal glasshouse test on Amaranthus retoflexus; conditions: post-emergence, 1000 g/h, evaluated after 13 days
How it was run: as §1

[10] = system: Setaria faberi (SETFA); assay: Pre-emergence herbicidal glasshouse test on Setaria faberi; conditions: pre-emergence, 1000 g/h, evaluated after 13 days
How it was run: as §1

[11] = system: Alopecurus myosuroides (ALOMY); assay: Pre-emergence herbicidal glasshouse test on Alopecurus myosuroides; conditions: pre-emergence, 1000 g/h, evaluated after 13 days
How it was run: as §1

[12] = system: Amaranthus retoflexus (AMARE); assay: Pre-emergence herbicidal glasshouse test on Amaranthus retoflexus; conditions: pre-emergence, 1000 g/h, evaluated after 13 days
How it was run: as §1

| Compound | PRE Application ECHCG herbicidal damage (five point scale) [1] | PRE Application IPOHE herbicidal damage (five point scale) [2] | POST Application IPOHE herbicidal damage (five point scale) [3] | POST Application ALOMY herbicidal damage (five point scale) [4] | POST Application SETFA herbicidal damage (five point scale) [5] | POST Application ECHCG herbicidal damage (five point scale) [6] | PRE Application SOLNI herbicidal damage (five point scale) [7] | POST Application SOLNI herbicidal damage (five point scale) [8] | POST Application AMARE herbicidal damage (five point scale) [9] | PRE Application SETFA herbicidal damage (five point scale) [10] | PRE Application ALOMY herbicidal damage (five point scale) [11] | PRE Application AMARE herbicidal damage (five point scale) [12] | further results |
| --- | --- | --- | --- | --- | --- | --- | --- | --- | --- | --- | --- | --- | --- |
| Cc1nc2nc(C(F)(F)F)c(-c3cnn(C)c(=O)c3O)cc2cc1F [Compound 1.151] | – | – | – | – | – | – | – | – | – | – | – | – | herbicidal damage, PRE Application ECHCG ([1]; five point scale): 5 (5=80-100% damage); herbicidal damage, PRE Application IPOHE ([2]; five point scale): 5 (5=80-100% damage); herbicidal damage, POST Application IPOHE ([3]; five point scale): 5 (5=80-100% damage); herbicidal damage, POST Application ALOMY ([4]; five point scale): 5 (5=80-100% damage); herbicidal damage, POST Application SETFA ([5]; five point scale): 5 (5=80-100% damage); herbicidal damage, POST Application ECHCG ([6]; five point scale): 5 (5=80-100% damage); herbicidal damage, PRE Application SOLNI ([7]; five point scale): 4 (4=60-79% damage); herbicidal damage, POST Application SOLNI ([8]; five point scale): 5 (5=80-100% damage); herbicidal damage, POST Application AMARE ([9]; five point scale): 5 (5=80-100% damage); herbicidal damage, PRE Application SETFA ([10]; five point scale): 2 (2=20-39% damage); herbicidal damage, PRE Application ALOMY ([11]; five point scale): 2 (2=20-39% damage); herbicidal damage, PRE Application AMARE ([12]; five point scale): 5 (5=80-100% damage) |
| Cc1c(-c2cnn(C(F)F)c(=O)c2O)ccc(S(C)(=O)=O)c1C1=NOCC1 [Compound 1.005] | 5 (5=80-100% damage) | 1 (1=0-19% damage) | 5 (5=80-100% damage) | 4 (4=60-79% damage) | 5 (5=80-100% damage) | 5 (5=80-100% damage) | 3 (3=40-59% damage) | 5 (5=80-100% damage) | 5 (5=80-100% damage) | 5 (5=80-100% damage) | 1 (1=0-19% damage) | 5 (5=80-100% damage) | – |
| Cn1ncc(-n2ccc(C(F)(F)F)cc2=O)c(O)c1=O [Compound 1.078] | 5 (5=80-100% damage) | 2 (2=20-39% damage) | 4 (4=60-79% damage) | 1 (1=0-19% damage) | 5 (5=80-100% damage) | 5 (5=80-100% damage) | 5 (5=80-100% damage) | 5 (5=80-100% damage) | 5 (5=80-100% damage) | 5 (5=80-100% damage) | 2 (2=20-39% damage) | 5 (5=80-100% damage) | – |
| Cn1ncc(-c2ccc(F)cc2[S+](C)[O-])c(O)c1=O (stereo not drawn) [Compound 1.057] | 5 (5=80-100% damage) | 2 (2=20-39% damage) | 5 (5=80-100% damage) | 5 (5=80-100% damage) | 5 (5=80-100% damage) | 5 (5=80-100% damage) | 5 (5=80-100% damage) | 5 (5=80-100% damage) | 5 (5=80-100% damage) | 5 (5=80-100% damage) | 5 (5=80-100% damage) | 5 (5=80-100% damage) | – |
| Cn1ncc(-c2ccc(F)cc2S(C)(=O)=O)c(O)c1=O [Compound 1.058] | 5 (5=80-100% damage) | 5 (5=80-100% damage) | 5 (5=80-100% damage) | 5 (5=80-100% damage) | 5 (5=80-100% damage) | 5 (5=80-100% damage) | 5 (5=80-100% damage) | 5 (5=80-100% damage) | 5 (5=80-100% damage) | 5 (5=80-100% damage) | 5 (5=80-100% damage) | 5 (5=80-100% damage) | – |
| COc1ccc(Cn2ncc(-c3ccc(Cl)cc3S(C)(=O)=O)c(O)c2=O)cc1 [Compound 2.008] | 5 (5=80-100% damage) | 3 (3=40-59% damage) | 5 (5=80-100% damage) | 3 (3=40-59% damage) | 5 (5=80-100% damage) | 5 (5=80-100% damage) | 5 (5=80-100% damage) | 5 (5=80-100% damage) | 5 (5=80-100% damage) | 2 (2=20-39% damage) | 4 (4=60-79% damage) | 5 (5=80-100% damage) | – |
| Cn1ncc(-c2ccc(C(F)(F)F)nc2O)c(O)c1=O [Compound 4.006] | 1 (1=0-19% damage) | 1 (1=0-19% damage) | 2 (2=20-39% damage) | 1 (1=0-19% damage) | 1 (1=0-19% damage) | 1 (1=0-19% damage) | 1 (1=0-19% damage) | 4 (4=60-79% damage) | 3 (3=40-59% damage) | 1 (1=0-19% damage) | 1 (1=0-19% damage) | 1 (1=0-19% damage) | – |
| Cc1ccc(F)cc1-c1c(C(F)(F)F)ccn(-c2cnn(C)c(=O)c2O)c1=O [Compound 7.007] | 5 (5=80-100% damage) | 4 (4=60-79% damage) | 5 (5=80-100% damage) | 5 (5=80-100% damage) | 5 (5=80-100% damage) | 5 (5=80-100% damage) | 5 (5=80-100% damage) | 5 (5=80-100% damage) | 5 (5=80-100% damage) | 5 (5=80-100% damage) | 5 (5=80-100% damage) | 5 (5=80-100% damage) | – |
